Experimental data taken from patent US12048706B2, “Methods of treating epilepsy or status epilepticus” (Sage Therapeutics, Inc., priority 2012, dated 2024).
Like-named read-outs stand apart in the source and are kept apart here.

How the values were obtained:
patient in SRSE = assay: Treatment of one patient in super-refractory status epilepticus (SRSE) with allopregnanolone infusion; type: in vivo, human
Source text: A physician at the Massachusetts General Hospital, Boston, Mass. treated one patient in SRSE with allopregnanolone in a hydroxyl-propyl beta cyclodextrin formulation. The patient was a previously-healthy, person, college graduate who was started on allopregnanolone on their 92nd day of SRSE.
During their hospital course, the patient had previously been treated with propofol, midazolam, lacosamide, phenytoin, phenobarbital, ketamine, clonazepam, levetiracetam, valproate, pentobarbital, topiramate, steroids, pyridoxine, coq-10, lidocaine, electroconvulsive therapy (ECT), bromides, hypothermia, a ketogenic diet, and acupuncture.
(§1) At the time that allopregnanolone was started, the patient was still in a pentobarbital-induced coma as well as receiving lacosamide, phenobarbital, clonazepam, and levetiracetam. The patient was started on allopregnanolone at a continuous infusion rate of 86 μg/kg/h for 5 days, after which the allopregnanolone was rapidly tapered and discontinued over a 24-hour period. Plasma samples were drawn at 5 h, 29 h, 53 h, 77 h, 101 h, 125 h, 149 h, and 173 h and are shown on FIG. 2. The plasma level rose and by Day 2 had achieved the target level of 150 nmoles/L. The pentobarbital was tapered and discontinued over the first 36 hours of allopregnanolone therapy. […] They continued to improve and was conversant, making jokes, and in a rehabilitation facility as of April 2013.

[1] = Plasma exposure of allopregnanolone from human SE study; type: in vivo; settings: by Day 2; continuous IV infusion 86 μg/kg/h; single SRSE patient
Method: FIG. 2. Plasma exposure of allopregnanolone from human SE study. Plasma concentration profile over time of allopregnanolone in a single patient. The patient was dosed allopregnanolone (ALLO) at 1.5 mg/mL in 6% hydroxypropyl-β-cyclodextrin in 0.9% sodium chloride intravenously for 5 days (120 h). The infusion rate was 86 μg/kg/h. The patient was dosed 5.6 mg/h of allopregnanolone at 3.8 mL/h. Plasma concentration was analyzed 2 hours prior to the start of infusion and then 52, 76, 100, 124, and 148 hours post-infusion.
as §1

[2] = test system: patients with status epilepticus; settings: cited from earlier work

With `CC(=O)[C@H]1CC[C@H]2[C@@H]3CC[C@H]4C[C@H](O)CC[C@]4(C)[C@H]3CC[C@]12C` [allopregnanolone, 3 alpha-hydroxy-5 alpha-pregnan-20-one] the “adverse events attributed to allopregnanolone” value (patient in SRSE; 86 μg/kg/h for 5 days, then taper over 24 hours) was “no adverse events”, the EEG (patient in SRSE; 36-hour time point, patient entirely weaned from pentobarbital, infusion 86 μg/kg/h) was “had begun to normalize” and the “clinical state of the patient” value (patient in SRSE; at 72 hours, infusion 86 μg/kg/h) was “awake and followed simple midline commands”. It also gave a plasma level [1] of 150 nmol/L.

In the case of `O=C1Nc2ccc(Cl)cc2C(c2ccccc2Cl)=NC1O` (stereo not drawn) [lorazepam], the “patients who did not respond to first line treatment” value ([2]; intravenous (IV) treatment) is given as 36.6%.

In the case of `Cc1ncc2n1-c1ccc(Cl)cc1C(c1ccccc1F)=NC2` [midazolam], the “patients who did not respond to first line treatment” value ([2]; intramuscular (IM) treatment) is given as 26.6%.
